Results on 15 compounds are retold here after PMC9967275, “Screening the Pathogen Box to Discover and Characterize New Cruzain and TbrCatL Inhibitors” (Pathogens, 2023).
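Note: at 5 µM compound concentration.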

T1 sequence (Q95PM0 entry or part of it): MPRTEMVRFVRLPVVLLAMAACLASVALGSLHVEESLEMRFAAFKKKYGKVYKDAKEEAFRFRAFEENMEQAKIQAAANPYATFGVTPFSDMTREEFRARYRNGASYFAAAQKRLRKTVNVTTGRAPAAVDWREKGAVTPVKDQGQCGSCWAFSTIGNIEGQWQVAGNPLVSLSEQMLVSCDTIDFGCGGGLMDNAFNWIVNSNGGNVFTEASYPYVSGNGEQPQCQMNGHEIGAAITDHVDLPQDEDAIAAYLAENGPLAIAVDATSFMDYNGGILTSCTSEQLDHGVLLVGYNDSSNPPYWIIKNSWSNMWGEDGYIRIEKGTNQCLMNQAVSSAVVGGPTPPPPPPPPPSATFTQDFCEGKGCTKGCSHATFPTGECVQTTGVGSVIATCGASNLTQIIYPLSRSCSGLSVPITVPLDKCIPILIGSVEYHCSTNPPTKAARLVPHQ
Chain of cruzain (P25779 123-337 limits assumed): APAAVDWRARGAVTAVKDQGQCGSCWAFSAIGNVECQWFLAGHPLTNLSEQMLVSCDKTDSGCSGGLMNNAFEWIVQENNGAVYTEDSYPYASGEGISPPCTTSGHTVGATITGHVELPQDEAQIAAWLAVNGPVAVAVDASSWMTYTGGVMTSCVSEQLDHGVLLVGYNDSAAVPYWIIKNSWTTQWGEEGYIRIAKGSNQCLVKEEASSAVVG

For one test, the target named is cruzain (Trypanosoma cruzi, UniProt P25779). The test can be described thus: biochemical. The following applies: 0’ (no pre-incubation); sheet Screening results. In outline:
(§1)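 Recombinant enzymes assayed by Z-Phe-Arg-AMC cleavage at 25 °C, fluorescence 340/440 nm over 5–7 min, with 10 min or no enzyme–compound preincubation.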
With `Cc1cc(OCC(=O)NCc2ccccc2)c2cc(Br)ccc2n1` [MMV687747], the “Cruzain Inhibition 0’” value worked out at 6.4%.
As for `c1ccc(C[C@@H]2CN(c3nccc(Oc4ccc(-n5ccnc5)cc4)n3)CCN2)cc1` [MMV687749], the “Cruzain Inhibition 0’” value came out at 14%.
The same measure, in the same setting: the value for `c1ccc(Oc2ccc(-c3cc(C4CCOCC4)[nH]n3)cc2)cc1` [MMV687762] was 9%; that for `CC1(C)OB(O)c2ccc(C3=NOC(c4cc(Cl)c(F)c(Cl)c4)(C(F)(F)F)C3)cc21` (stereo not drawn) [MMV687775] was 13%.
For `Cc1cc(C2=NOC(c3cc(Cl)c(F)c(Cl)c3)(C(F)(F)F)C2)ccc1C(=O)NCc1ccc2c(c1)C(C)(C)OB2O` (stereo not drawn) [MMV687776], the “Cruzain Inhibition 0’” value worked out at 25%.
On the same count and under the same terms, to `CC(C)N=c1cc2n(-c3ccc(Cl)cc3)c3ccccc3nc-2cc1Nc1ccc(Cl)cc1` [MMV687800] belongs 23%; to `CC[C@H](CO)NCCN[C@H](CC)CO` [MMV687801], -4.5%; to `CC(=O)NC[C@@H]1CN(c2ccc(N3CCOCC3)c(F)c2)C(=O)O1` [MMV687803], -8%.
Take `Cc1cccc(-c2nc(Nc3ccncn3)c3sccc3n2)n1` [MMV688122]: the “Cruzain Inhibition 0’” value is reported as -1.4%.
On to `CN1CCN(S(=O)(=O)c2ccc(-c3ccc4c(Nc5ncc(Cl)cn5)ccnc4c3)cc2)CC1` [MMV688283], for which the “Cruzain Inhibition 0’” value amounted to 30%.
The same measure, in the same setting: to `CC(=O)NC[C@H]1CN(c2ccc(-c3ccc(CNCc4cn[nH]n4)cc3)c(F)c2)C(=O)O1` [MMV688327] belongs -3.5%.

Staying with this test, now noted: 0’ (pre-incubation time); Pathogen Box screening results.
Regarding `NCCC(O)C(=O)N[C@@H]1C[C@H](N)[C@@H](OC2O[C@H](CN)[C@@H](O)[C@H](O)[C@H]2O)[C@H](O)C1OC1O[C@H](CO)[C@@H](O)[C@H](N)[C@H]1O` (stereo partly drawn) [MMV687796], the “Cruzain Inhibition 0’” value is recorded as -0.8%.
Same read-out and setting: to `Nc1ccc2ncnc(Nc3ccc(OCc4cccc(F)c4)c(Cl)c3)c2c1` [MMV688273] belongs -11%; to `CC(=O)N1CCN(c2ccc(Oc3ccc(Cl)cc3O)cc2)CC1` [MMV688330], -3%.

The test is the same for the next values; noted with them: 0’ (pre-incubation time); sheet "Screening results".
As for `CCCCOC(=O)Nc1cc2[nH]c(C3CCCCC3)nc2cc1N1CCCC1` [MMV687730], the “Cruzain 0’ Inhibition” value was 12%.

Still in this test, the particulars now being: 10’ (pre-incubation time); Pathogen Box screening results.
`NCCC(O)C(=O)N[C@@H]1C[C@H](N)[C@@H](OC2O[C@H](CN)[C@@H](O)[C@H](O)[C@H]2O)[C@H](O)C1OC1O[C@H](CO)[C@@H](O)[C@H](N)[C@H]1O` (stereo partly drawn) [MMV687796]: the “Cruzain Inhibition 10’” value is on record as -3.6%.
As to `Nc1ccc2ncnc(Nc3ccc(OCc4cccc(F)c4)c(Cl)c3)c2c1` [MMV688273], the “Cruzain Inhibition 10’” value is -18%.
The same measure, in the same setting: to `CC(=O)N1CCN(c2ccc(Oc3ccc(Cl)cc3O)cc2)CC1` [MMV688330] belongs -11%.

The test is the same for the next values; noted with them: 10’ (pre-incubation time); sheet "Screening results".
For the compound `CCCCOC(=O)Nc1cc2[nH]c(C3CCCCC3)nc2cc1N1CCCC1` [MMV687730], the “Cruzain 10’ Inhibition” value is recorded as 4.4%.

Still in this test, the particulars now being: 10’ (pre-incubation); sheet Screening results.
Consider `Cc1cc(OCC(=O)NCc2ccccc2)c2cc(Br)ccc2n1` [MMV687747], for which the “Cruzain Inhibition 10’” value amounted to 6%.
For `c1ccc(C[C@@H]2CN(c3nccc(Oc4ccc(-n5ccnc5)cc4)n3)CCN2)cc1` [MMV687749], the “Cruzain Inhibition 10’” value was 13%.
On the same count and under the same terms, the value for `c1ccc(Oc2ccc(-c3cc(C4CCOCC4)[nH]n3)cc2)cc1` [MMV687762] was 7%.
Same read-out and setting: the value for `CC1(C)OB(O)c2ccc(C3=NOC(c4cc(Cl)c(F)c(Cl)c4)(C(F)(F)F)C3)cc21` (stereo not drawn) [MMV687775] was -4%; that for `Cc1cc(C2=NOC(c3cc(Cl)c(F)c(Cl)c3)(C(F)(F)F)C2)ccc1C(=O)NCc1ccc2c(c1)C(C)(C)OB2O` (stereo not drawn) [MMV687776] was 17%; that for `CC(C)N=c1cc2n(-c3ccc(Cl)cc3)c3ccccc3nc-2cc1Nc1ccc(Cl)cc1` [MMV687800] was 10%.
On the same count and under the same terms, the value for `CC[C@H](CO)NCCN[C@H](CC)CO` [MMV687801] was 0.4%; that for `CC(=O)NC[C@@H]1CN(c2ccc(N3CCOCC3)c(F)c2)C(=O)O1` [MMV687803] was -4%; that for `Cc1cccc(-c2nc(Nc3ccncn3)c3sccc3n2)n1` [MMV688122] was -17%.
As to `CN1CCN(S(=O)(=O)c2ccc(-c3ccc4c(Nc5ncc(Cl)cn5)ccnc4c3)cc2)CC1` [MMV688283], the “Cruzain Inhibition 10’” value stood at 31%.
On the same count and under the same terms, to `CC(=O)NC[C@H]1CN(c2ccc(-c3ccc(CNCc4cn[nH]n4)cc3)c(F)c2)C(=O)O1` [MMV688327] belongs 4%.

Another test has as its target T1, TbrCatL (Trypanosoma brucei rhodesiense, UniProt Q95PM0).
T1 construct: Conor Caffrey (University of California San Diego)
The test can be described thus: TbrCatL enzymatic inhibition assay (cleavage of fluorogenic substrate Z-FR-AMC). Format: biochemical. The settings on record: 0’ (no pre-incubation); sheet Screening results. In outline: as §1
For the compound `Cc1cc(OCC(=O)NCc2ccccc2)c2cc(Br)ccc2n1` [MMV687747], the “TbrCatL Inhibition 0’” value is given as 2%.
On to `c1ccc(C[C@@H]2CN(c3nccc(Oc4ccc(-n5ccnc5)cc4)n3)CCN2)cc1` [MMV687749], for which the “TbrCatL Inhibition 0’” value worked out at 6.4%.
Same read-out and setting: to `c1ccc(Oc2ccc(-c3cc(C4CCOCC4)[nH]n3)cc2)cc1` [MMV687762] belongs 17%; to `CC1(C)OB(O)c2ccc(C3=NOC(c4cc(Cl)c(F)c(Cl)c4)(C(F)(F)F)C3)cc21` (stereo not drawn) [MMV687775], -0.5%; to `Cc1cc(C2=NOC(c3cc(Cl)c(F)c(Cl)c3)(C(F)(F)F)C2)ccc1C(=O)NCc1ccc2c(c1)C(C)(C)OB2O` (stereo not drawn) [MMV687776], -0.1%.
On the same count and under the same terms, the value for `CC(C)N=c1cc2n(-c3ccc(Cl)cc3)c3ccccc3nc-2cc1Nc1ccc(Cl)cc1` [MMV687800] was 1.1%.
As to `CC[C@H](CO)NCCN[C@H](CC)CO` [MMV687801], the “TbrCatL Inhibition 0’” value was determined as 7%.
Still for that read-out and setting: the value for `CC(=O)NC[C@@H]1CN(c2ccc(N3CCOCC3)c(F)c2)C(=O)O1` [MMV687803] was 3.8%.
On to `Cc1cccc(-c2nc(Nc3ccncn3)c3sccc3n2)n1` [MMV688122], for which the “TbrCatL Inhibition 0’” value came out at 19%.
The same measure, in the same setting: to `CN1CCN(S(=O)(=O)c2ccc(-c3ccc4c(Nc5ncc(Cl)cn5)ccnc4c3)cc2)CC1` [MMV688283] belongs 24%.
On the same count and under the same terms, to `CC(=O)NC[C@H]1CN(c2ccc(-c3ccc(CNCc4cn[nH]n4)cc3)c(F)c2)C(=O)O1` [MMV688327] belongs -5.5%.

The same test, now with this note: 0’ (pre-incubation time); Pathogen Box screening results.
As to `NCCC(O)C(=O)N[C@@H]1C[C@H](N)[C@@H](OC2O[C@H](CN)[C@@H](O)[C@H](O)[C@H]2O)[C@H](O)C1OC1O[C@H](CO)[C@@H](O)[C@H](N)[C@H]1O` (stereo partly drawn) [MMV687796], the “TbrCatL Inhibition 0’” value is on record as -9.5%.
Same read-out and setting: the value for `Nc1ccc2ncnc(Nc3ccc(OCc4cccc(F)c4)c(Cl)c3)c2c1` [MMV688273] was 0.9%.
For `CC(=O)N1CCN(c2ccc(Oc3ccc(Cl)cc3O)cc2)CC1` [MMV688330], the “TbrCatL Inhibition 0’” value was -8%.

Still in this test, the particulars now being: 0’ (pre-incubation time); sheet "Screening results".
On to `CCCCOC(=O)Nc1cc2[nH]c(C3CCCCC3)nc2cc1N1CCCC1` [MMV687730], for which the “TbrCatL 0’ Inhibition” value was 19%.

The test is the same for the next values; noted with them: 10’ (pre-incubation time); Pathogen Box screening results.
For `NCCC(O)C(=O)N[C@@H]1C[C@H](N)[C@@H](OC2O[C@H](CN)[C@@H](O)[C@H](O)[C@H]2O)[C@H](O)C1OC1O[C@H](CO)[C@@H](O)[C@H](N)[C@H]1O` (stereo partly drawn) [MMV687796], the “TbrCatL Inhibition 10’” value is -6%.
As for `Nc1ccc2ncnc(Nc3ccc(OCc4cccc(F)c4)c(Cl)c3)c2c1` [MMV688273], the “TbrCatL Inhibition 10’” value is given as -14%.
The same measure, in the same setting: the value for `CC(=O)N1CCN(c2ccc(Oc3ccc(Cl)cc3O)cc2)CC1` [MMV688330] was -10%.

Staying with this test, now noted: 10’ (pre-incubation time); sheet "Screening results".
As for `CCCCOC(=O)Nc1cc2[nH]c(C3CCCCC3)nc2cc1N1CCCC1` [MMV687730], the “TbrCatL 10’ Inhibition” value was found to be 12%.

The test is the same for the next values; noted with them: 10’ (pre-incubation); sheet Screening results.
For the compound `Cc1cc(OCC(=O)NCc2ccccc2)c2cc(Br)ccc2n1` [MMV687747], the “TbrCatL Inhibition 10’” value is -0.3%.
Same read-out and setting: to `c1ccc(C[C@@H]2CN(c3nccc(Oc4ccc(-n5ccnc5)cc4)n3)CCN2)cc1` [MMV687749] belongs 5.6%.
On the same count and under the same terms, the value for `c1ccc(Oc2ccc(-c3cc(C4CCOCC4)[nH]n3)cc2)cc1` [MMV687762] was 12%.
The same measure, in the same setting: to `CC1(C)OB(O)c2ccc(C3=NOC(c4cc(Cl)c(F)c(Cl)c4)(C(F)(F)F)C3)cc21` (stereo not drawn) [MMV687775] belongs -8%; to `Cc1cc(C2=NOC(c3cc(Cl)c(F)c(Cl)c3)(C(F)(F)F)C2)ccc1C(=O)NCc1ccc2c(c1)C(C)(C)OB2O` (stereo not drawn) [MMV687776], -4.5%.
For `CC(C)N=c1cc2n(-c3ccc(Cl)cc3)c3ccccc3nc-2cc1Nc1ccc(Cl)cc1` [MMV687800], the “TbrCatL Inhibition 10’” value is 3%.
With `CC[C@H](CO)NCCN[C@H](CC)CO` [MMV687801], the “TbrCatL Inhibition 10’” value was determined as 0.4%.
Still for that read-out and setting: the value for `CC(=O)NC[C@@H]1CN(c2ccc(N3CCOCC3)c(F)c2)C(=O)O1` [MMV687803] was -0.1%; that for `Cc1cccc(-c2nc(Nc3ccncn3)c3sccc3n2)n1` [MMV688122] was -8%.
On the same count and under the same terms, the value for `CN1CCN(S(=O)(=O)c2ccc(-c3ccc4c(Nc5ncc(Cl)cn5)ccnc4c3)cc2)CC1` [MMV688283] was 18%; that for `CC(=O)NC[C@H]1CN(c2ccc(-c3ccc(CNCc4cn[nH]n4)cc3)c(F)c2)C(=O)O1` [MMV688327] was 6.4%.
